In ChEMBL document CHEMBL1128255, “Synthesis of 11 beta-[18F]fluoro-5 alpha-dihydrotestosterone and 11 beta-[18F]fluoro-19-nor-5 alpha-dihydrotestosterone: preparation via halofluorination-reduction, receptor binding, and tissue distribution” (J Med Chem, 1995):

How the values were obtained:
[1] = %ID/g is percent injected dose per gram of tissue and in vivo distribution of compound obtained after 1 hour in blood; type: ADME, organism-based
[2] = %ID/g is percent injected dose per gram of tissue and in vivo distribution of compound obtained after 4 hour in bone; type: ADME, organism-based, Bone element
[3] = %ID/g is percent injected dose per gram of tissue and in vivo distribution of compound obtained after 4 hour in spleen; type: ADME, organism-based
[4] = %ID/g is percent injected dose per gram of tissue and in vivo distribution of compound obtained after 4 hour in blood; type: ADME, organism-based
[5] = %ID/g is percent injected dose per gram of tissue and in vivo distribution of compound obtained after 2 hour (blocked) in kidney; type: ADME, organism-based
[6] = %ID/g is percent injected dose per gram of tissue and in vivo distribution of compound obtained after 4 hour in prostate (v)/blood; type: ADME, organism-based; details: other tissue
[7] = %ID/g is percent injected dose per gram of tissue and in vivo distribution of compound obtained after 2 hour (blocked) in prostate (v); type: ADME, organism-based, Prostate gland
[8] = %ID/g is percent injected dose per gram of tissue and in vivo distribution of compound obtained after 2 hour (blocked) in bladder; type: ADME, organism-based, Urinary bladder
[9] = %ID/g is percent injected dose per gram of tissue and in vivo distribution of compound obtained after 2 hour (blocked) in prostate (d)/muscle; type: ADME, organism-based
[10] = %ID/g is percent injected dose per gram of tissue and in vivo distribution of compound obtained after 2 hour in prostate (d)/muscle; type: ADME, organism-based
[11] = %ID/g is percent injected dose per gram of tissue and in vivo distribution of compound obtained after 4 hour in prostate (d)/biood; type: ADME, organism-based, Prostate gland
[12] = %ID/g is percent injected dose per gram of tissue and in vivo distribution of compound obtained after 1 hour in prostate (v)/muscle; type: ADME, organism-based
[13] = %ID/g is percent injected dose per gram of tissue and in vivo distribution of compound obtained after 4 hour in lung; type: ADME, organism-based
[14] = %ID/g is percent injected dose per gram of tissue and in vivo distribution of compound obtained after 2 hour (low) in liver; type: ADME, organism-based
[15] = %ID/g is percent injected dose per gram of tissue and in vivo distribution of compound obtained after 2 hour (low) in prostate (d)/muscle; type: ADME, organism-based
[16] = %ID/g is percent injected dose per gram of tissue and in vivo distribution of compound obtained after 2 hour (blocked) in bone; type: ADME, organism-based, Bone element
[17] = %ID/g is percent injected dose per gram of tissue and in vivo distribution of compound obtained after 2 hour in bone; type: ADME, organism-based, Bone element
[18] = %ID/g is percent injected dose per gram of tissue and in vivo distribution of compound obtained after 1 hour in prostate (d)/muscle; type: ADME, organism-based
[19] = %ID/g is percent injected dose per gram of tissue and in vivo distribution of compound obtained after 4 hour in prostate (d); type: ADME, organism-based, Prostate gland
[20] = %ID/g is percent injected dose per gram of tissue and in vivo distribution of compound obtained after 2 hour (low) in prostate (v); type: ADME, organism-based, Prostate gland
[21] = %ID/g is percent injected dose per gram of tissue and in vivo distribution of compound obtained after 2 hour in liver; type: ADME, organism-based
[22] = %ID/g is percent injected dose per gram of tissue and in vivo distribution of compound obtained after 2 hour (blocked) in blood; type: ADME, organism-based
[23] = %ID/g is percent injected dose per gram of tissue and in vivo distribution of compound obtained after 2 hour (low) in lung; type: ADME, organism-based
[24] = %ID/g is percent injected dose per gram of tissue and in vivo distribution of compound obtained after 4 hour in liver; type: ADME, organism-based
[25] = %ID/g is percent injected dose per gram of tissue and in vivo distribution of compound obtained after 2 hour in prostate (d); type: ADME, organism-based, Prostate gland
[26] = %ID/g is percent injected dose per gram of tissue and in vivo distribution of compound obtained after 2 hour (blocked) in lung; type: ADME, organism-based
[27] = %ID/g is percent injected dose per gram of tissue and in vivo distribution of compound obtained after 2 hour (low) in bone; type: ADME, organism-based, Bone element
[28] = %ID/g is percent injected dose per gram of tissue and in vivo distribution of compound obtained after 2 hour in prostate (v); type: ADME, organism-based, Prostate gland
[29] = %ID/g is percent injected dose per gram of tissue and in vivo distribution of compound obtained after 4 hour in kidney; type: ADME, organism-based
[30] = %ID/g is percent injected dose per gram of tissue and in vivo distribution of compound obtained after 2 hour (blocked) in liver; type: ADME, organism-based
[31] = %ID/g is percent injected dose per gram of tissue and in vivo distribution of compound obtained after 4 hour in muscle; type: ADME, organism-based
[32] = %ID/g is percent injected dose per gram of tissue and in vivo distribution of compound obtained after 2 hour in prostate (v)/muscle; type: ADME, organism-based
[33] = %ID/g is percent injected dose per gram of tissue and in vivo distribution of compound obtained after 1 hour in prostate (d)/biood; type: ADME, organism-based, Prostate gland; details: other tissue
[34] = %ID/g is percent injected dose per gram of tissue and in vivo distribution of compound obtained after 4 hour in prostate (d)/muscle; type: ADME, organism-based
[35] = %ID/g is percent injected dose per gram of tissue and in vivo distribution of compound obtained after 4 hour in prostate (v); type: ADME, organism-based, Prostate gland
[36] = %ID/g is percent injected dose per gram of tissue and in vivo distribution of compound obtained after 1 hour in prostate (d); type: ADME, organism-based, Prostate gland
[37] = %ID/g is percent injected dose per gram of tissue and in vivo distribution of compound obtained after 2 hour (low) in muscle; type: ADME, organism-based
[38] = %ID/g is percent injected dose per gram of tissue and in vivo distribution of compound obtained after 2 hour (low) in prostate (d); type: ADME, organism-based, Prostate gland
[39] = %ID/g is percent injected dose per gram of tissue and in vivo distribution of compound obtained after 1 hour in spleen; type: ADME, organism-based
[40] = %ID/g is percent injected dose per gram of tissue and in vivo distribution of compound obtained after 2 hr in kidney; type: ADME, organism-based
[41] = %ID/g is percent injected dose per gram of tissue and in vivo distribution of compound obtained after 4 hour in bladder; type: ADME, organism-based, Urinary bladder
[42] = %ID/g is percent injected dose per gram of tissue and in vivo distribution of compound obtained after 2 hour (low) in prostate (v)/blood; type: ADME, organism-based
[43] = %ID/g is percent injected dose per gram of tissue and in vivo distribution of compound obtained after 2 hour in spleen; type: ADME, organism-based
[44] = %ID/g is percent injected dose per gram of tissue and in vivo distribution of compound obtained after 1 hour in fat; type: ADME, organism-based, Adipose tissue
[45] = %ID/g is percent injected dose per gram of tissue and in vivo distribution of compound obtained after 2 hour in muscle; type: ADME, organism-based
[46] = %ID/g is percent injected dose per gram of tissue and in vivo distribution of compound obtained after 1 hour in kidney; type: ADME, organism-based
[47] = %ID/g is percent injected dose per gram of tissue and in vivo distribution of compound obtained after 1 hour in bone; type: ADME, organism-based, Bone element
[48] = %ID/g is percent injected dose per gram of tissue and in vivo distribution of compound obtained after 2 hour (blocked) in prostate (d); type: ADME, organism-based, Prostate gland
[49] = %ID/g is percent injected dose per gram of tissue and in vivo distribution of compound obtained after 4 hour in prostate (v)/muscle; type: ADME, organism-based

## C[C@]12CCC(=O)C[C@@H]1CC[C@@H]1[C@@H]2[C@@H](F)C[C@]2(C)[C@@H](O)CC[C@@H]12
[1]
  ID/g: 0.092%
[2]
  ID/g: 0.072%
[3]
  ID/g: 0.02%
[4]
  ID/g: 0.028%
[5]
  ID/g: 0.2%
[6]
  ID/g: 12.249%
[7]
  ID/g: 0.069%
[8]
  ID/g: 0.903%
[9]
  ID/g: 3.089%
[10]
  ID/g: 10.141%
[11]
  ID/g: 10.827%
[12]
  ID/g: 8.208%
[13]
  ID/g: 0.035%
[14]
  ID/g: 0.228%
[15]
  ID/g: 9.78%
[16]
  ID/g: 0.061%
[17]
  ID/g: 0.061%
[18]
  ID/g: 7.75%
[19]
  ID/g: 0.291%
[20]
  ID/g: 0.212%
[21]
  ID/g: 0.451%
[22]
  ID/g: 0.048%
[23]
  ID/g: 0.036%
[24]
  ID/g: 0.415%
[25]
  ID/g: 0.352%
[26]
  ID/g: 0.039%
[27]
  ID/g: 0.059%
[28]
  ID/g: 0.317%
[29]
  ID/g: 0.155%
[30]
  ID/g: 0.468%
[31]
  ID/g: 0.017%
[32]
  ID/g: 9.022%
[33]
  ID/g: 5.16%
[34]
  ID/g: 17.573%
[35]
  ID/g: 0.327%
[36]
  ID/g: 0.459%
[37]
  ID/g: 0.026%
[38]
  ID/g: 0.229%
[39]
  ID/g: 0.048%
[40]
  ID/g: 0.229%
[41]
  ID/g: 0.268%
[42]
  ID/g: 10.43%
[43]
  ID/g: 0.03%
[44]
  ID/g: 0.061%
[45]
  ID/g: 0.038%
[46]
  ID/g: 0.417%
[47]
  ID/g: 0.064%
[48]
  ID/g: 0.074%
[49]
  ID/g: 19.715%

## C[C@]12C[C@H](F)[C@H]3[C@@H](CC[C@H]4CC(=O)CC[C@@H]43)[C@@H]1CC[C@@H]2O
[1]
  ID/g: 0.089%
[2]
  ID/g: 0.078%
[3]
  ID/g: 0.029%
[4]
  ID/g: 0.035%
[5]
  ID/g: 0.301%
[6]
  ID/g: 2.036%
[7]
  ID/g: 0.054%
[8]
  ID/g: 11.404%
[9]
  ID/g: 1.61%
[10]
  ID/g: 3.882%
[11]
  ID/g: 2.682%
[12]
  ID/g: 4.4%
[13]
  ID/g: 0.046%
[14]
  ID/g: 1.045%
[15]
  ID/g: 3.83%
[16]
  ID/g: 0.065%
[17]
  ID/g: 0.077%
[18]
  ID/g: 3.473%
[19]
  ID/g: 0.084%
[20]
  ID/g: 0.109%
[21]
  ID/g: 0.992%
[22]
  ID/g: 0.061%
[23]
  ID/g: 0.061%
[24]
  ID/g: 0.863%
[25]
  ID/g: 0.132%
[26]
  ID/g: 0.054%
[27]
  ID/g: 0.096%
[28]
  ID/g: 0.12%
[29]
  ID/g: 0.201%
[30]
  ID/g: 1.189%
[31]
  ID/g: 0.027%
[32]
  ID/g: 3.404%
[33]
  ID/g: 2.531%
[34]
  ID/g: 3.98%
[35]
  ID/g: 0.066%
[36]
  ID/g: 0.21%
[37]
  ID/g: 0.037%
[38]
  ID/g: 0.139%
[39]
  ID/g: 0.061%
[40]
  ID/g: 0.276%
[41]
  ID/g: 0.456%
[42]
  ID/g: 2.427%
[43]
  ID/g: 0.036%
[44]
  ID/g: 0.069%
[45]
  ID/g: 0.035%
[46]
  ID/g: 0.458%
[47]
  ID/g: 0.068%
[48]
  ID/g: 0.048%
[49]
  ID/g: 2.919%
